We go through 14 compounds from ChEMBL document CHEMBL2331192, “Naphthalenyl derivatives for hitting P-gp/MRP1/BCRP transporters” (Bioorg Med Chem, 2013).

A short description of data set [1]: Apparent permeability across human Caco2 cells after 2 hrs. In kind it is ADME, cell-based. As to conditions: Caco-2; call rule not given here.
The target in data set [2] is Multidrug resistance-associated protein 1 (Homo sapiens, UniProt P33527). The data set is described as follows: Activity at MRP1 (unknown origin) expressed in MDCK cells assessed as interference calcein-AM efflux incubated for 30 mins prior to calcein-Am addition measured after 30 mins by fluorometric analysis. Format: cell-based.
Chain of Multidrug resistance-associated protein 1 (P33527 whole entry): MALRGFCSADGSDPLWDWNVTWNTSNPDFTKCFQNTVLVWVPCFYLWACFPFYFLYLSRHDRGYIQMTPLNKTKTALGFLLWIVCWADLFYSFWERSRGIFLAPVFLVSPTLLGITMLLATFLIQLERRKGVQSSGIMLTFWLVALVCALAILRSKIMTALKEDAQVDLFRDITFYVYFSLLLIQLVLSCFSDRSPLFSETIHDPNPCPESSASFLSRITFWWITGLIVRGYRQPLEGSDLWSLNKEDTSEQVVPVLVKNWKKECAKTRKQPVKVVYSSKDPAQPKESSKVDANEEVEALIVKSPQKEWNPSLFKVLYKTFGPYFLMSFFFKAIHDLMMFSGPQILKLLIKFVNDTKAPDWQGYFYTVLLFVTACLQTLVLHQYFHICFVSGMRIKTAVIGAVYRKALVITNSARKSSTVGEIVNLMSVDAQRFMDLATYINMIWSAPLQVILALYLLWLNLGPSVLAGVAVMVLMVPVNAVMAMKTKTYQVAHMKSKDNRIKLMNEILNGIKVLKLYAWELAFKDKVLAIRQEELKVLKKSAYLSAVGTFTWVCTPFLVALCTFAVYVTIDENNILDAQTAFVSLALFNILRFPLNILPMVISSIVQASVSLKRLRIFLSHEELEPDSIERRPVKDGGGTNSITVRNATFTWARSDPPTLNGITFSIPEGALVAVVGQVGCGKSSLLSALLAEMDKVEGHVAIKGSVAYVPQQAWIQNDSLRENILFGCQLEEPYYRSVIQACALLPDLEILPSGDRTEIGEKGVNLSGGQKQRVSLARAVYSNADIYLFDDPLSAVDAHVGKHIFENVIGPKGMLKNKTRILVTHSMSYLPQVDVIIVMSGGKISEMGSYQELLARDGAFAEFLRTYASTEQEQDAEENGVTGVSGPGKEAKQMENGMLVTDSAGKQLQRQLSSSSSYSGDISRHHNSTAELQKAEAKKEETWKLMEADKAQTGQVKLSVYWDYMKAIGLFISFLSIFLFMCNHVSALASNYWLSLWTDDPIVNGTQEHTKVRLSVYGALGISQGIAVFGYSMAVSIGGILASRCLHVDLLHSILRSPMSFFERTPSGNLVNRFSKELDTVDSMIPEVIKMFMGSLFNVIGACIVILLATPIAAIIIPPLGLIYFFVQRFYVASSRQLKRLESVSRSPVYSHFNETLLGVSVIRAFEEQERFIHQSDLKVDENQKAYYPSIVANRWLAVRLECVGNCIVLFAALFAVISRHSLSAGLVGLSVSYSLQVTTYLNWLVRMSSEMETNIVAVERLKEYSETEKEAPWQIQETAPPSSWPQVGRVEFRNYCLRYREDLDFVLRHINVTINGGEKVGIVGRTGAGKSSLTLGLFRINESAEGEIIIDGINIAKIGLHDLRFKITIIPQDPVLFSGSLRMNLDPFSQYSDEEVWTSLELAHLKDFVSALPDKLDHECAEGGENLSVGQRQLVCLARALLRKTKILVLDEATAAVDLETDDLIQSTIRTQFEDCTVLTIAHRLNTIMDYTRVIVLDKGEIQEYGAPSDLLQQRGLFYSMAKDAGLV
Data set [3] deals with T1, ATP-dependent translocase ABCB1 (Homo sapiens, UniProt P08183). The data set can be described thus: Activity at MDR1 (unknown origin) expressed in MDCK cells assessed as ATPase activity after 2 hrs by ATPlite assay. Format: cell-based. Background: ATP-based viability assays read luminescence as a measure of living cells.
T1 sequence (P08183 whole entry): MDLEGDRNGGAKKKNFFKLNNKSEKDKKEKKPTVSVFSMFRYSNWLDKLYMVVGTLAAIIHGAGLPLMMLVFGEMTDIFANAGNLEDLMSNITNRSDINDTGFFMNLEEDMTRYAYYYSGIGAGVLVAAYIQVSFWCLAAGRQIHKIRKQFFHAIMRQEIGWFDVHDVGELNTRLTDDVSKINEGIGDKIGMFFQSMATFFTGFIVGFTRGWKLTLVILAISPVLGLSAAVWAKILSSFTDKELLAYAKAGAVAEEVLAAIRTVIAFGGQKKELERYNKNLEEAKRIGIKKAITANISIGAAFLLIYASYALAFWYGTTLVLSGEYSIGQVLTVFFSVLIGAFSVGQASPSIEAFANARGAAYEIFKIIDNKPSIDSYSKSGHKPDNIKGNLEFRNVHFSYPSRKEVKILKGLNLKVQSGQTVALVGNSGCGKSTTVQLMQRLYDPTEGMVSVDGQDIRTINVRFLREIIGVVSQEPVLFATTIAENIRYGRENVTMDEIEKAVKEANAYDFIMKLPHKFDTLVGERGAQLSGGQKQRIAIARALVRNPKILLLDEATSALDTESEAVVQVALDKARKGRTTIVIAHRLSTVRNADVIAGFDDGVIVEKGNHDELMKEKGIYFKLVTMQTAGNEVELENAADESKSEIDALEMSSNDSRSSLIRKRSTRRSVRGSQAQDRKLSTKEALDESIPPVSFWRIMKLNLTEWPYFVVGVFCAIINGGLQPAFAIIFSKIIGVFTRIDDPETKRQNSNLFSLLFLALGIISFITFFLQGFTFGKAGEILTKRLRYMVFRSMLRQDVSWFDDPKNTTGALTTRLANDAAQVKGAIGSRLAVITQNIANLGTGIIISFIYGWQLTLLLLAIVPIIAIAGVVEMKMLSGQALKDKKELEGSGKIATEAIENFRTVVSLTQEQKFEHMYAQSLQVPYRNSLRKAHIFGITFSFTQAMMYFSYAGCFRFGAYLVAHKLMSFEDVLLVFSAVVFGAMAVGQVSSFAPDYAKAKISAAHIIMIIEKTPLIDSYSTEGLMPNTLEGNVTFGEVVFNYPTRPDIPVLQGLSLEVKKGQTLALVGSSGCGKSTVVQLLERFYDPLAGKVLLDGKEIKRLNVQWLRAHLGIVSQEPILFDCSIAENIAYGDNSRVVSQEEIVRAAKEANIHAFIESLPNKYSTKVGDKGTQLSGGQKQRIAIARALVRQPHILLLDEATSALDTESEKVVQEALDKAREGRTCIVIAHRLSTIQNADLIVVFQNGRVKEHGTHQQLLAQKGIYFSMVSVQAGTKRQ
Data set [4] has as its target T1, ATP-dependent translocase ABCB1. The data set can be described thus: Activity at MDR1 (unknown origin) expressed in MDCK cells assessed as interference with calcein-AM efflux incubated for 30 mins prior to calcein-Am addition measured after 30 mins by fluorometric analysis. Format: cell-based.
The target of data set [5] is T2, Broad substrate specificity ATP-binding cassette transporter ABCG2 (Homo sapiens, UniProt Q9UNQ0).
T2 sequence (Q9UNQ0 whole entry): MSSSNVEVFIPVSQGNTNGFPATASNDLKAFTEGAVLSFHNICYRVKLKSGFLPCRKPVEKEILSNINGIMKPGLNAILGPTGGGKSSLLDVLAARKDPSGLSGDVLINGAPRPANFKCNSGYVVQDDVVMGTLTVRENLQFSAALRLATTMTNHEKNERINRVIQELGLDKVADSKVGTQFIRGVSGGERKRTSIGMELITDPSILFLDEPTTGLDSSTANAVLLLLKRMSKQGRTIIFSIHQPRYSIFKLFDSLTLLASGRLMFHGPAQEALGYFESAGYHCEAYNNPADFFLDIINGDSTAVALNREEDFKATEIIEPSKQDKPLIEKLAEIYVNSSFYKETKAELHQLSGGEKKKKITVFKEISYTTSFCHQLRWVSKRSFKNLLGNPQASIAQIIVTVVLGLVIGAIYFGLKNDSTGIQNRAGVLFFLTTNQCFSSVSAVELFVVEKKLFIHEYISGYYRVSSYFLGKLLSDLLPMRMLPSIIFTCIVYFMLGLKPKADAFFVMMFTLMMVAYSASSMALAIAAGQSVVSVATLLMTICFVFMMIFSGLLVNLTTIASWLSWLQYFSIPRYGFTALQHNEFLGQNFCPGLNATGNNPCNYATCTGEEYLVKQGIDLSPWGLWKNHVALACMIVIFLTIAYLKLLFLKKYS
The data set is described as follows: Activity at BCRP (unknown origin) expressed in MDCK cells assessed as interference with rhodamine-123 efflux. In kind it is cell-based.

Data set [6] addresses T2, Broad substrate specificity ATP-binding cassette transporter ABCG2. The data set can be described thus: Activity at BCRP (unknown origin) expressed in MDCK cells assessed as interference with rhodamine-123 efflux at 200 nM. As to conditions: 0.2 µM. In kind it is cell-based.

Molecules are shown by their SMILES. Some results are limits rather than exact numbers.

Broadly, the Papp is a coefficient for how fast a substance crosses the barrier. Usually EC50 stands for the midpoint of the concentration-response curve. `COc1ccc2cc(-c3ccc(CN4CCc5cc(OC)c(OC)cc5C4)o3)ccc2c1`: in data set [1], the Papp at 2 h was found to be 0.408 ×10⁻⁶ cm/s. The EC50 in data set [2] was above 100 µM; in data set [4], 2.9 µM. Besides, in data set [3], the Activity entry was “Not Active”.
Consider `COc1cc2c(cc1OC)CN(Cc1coc(-c3ccc4cc(F)ccc4c3)n1)CC2`, for which the Papp at 2 h in data set [1] stood at 0.082 ×10⁻⁶ cm/s. For the same compound, the Activity result in data set [3] is on record as “Not Active”.
Turning to `COc1cc2c(cc1OC)CN(Cc1csc(-c3ccc4cc(F)ccc4c3)n1)CC2`, in data set [1], the Papp at 2 h turned out to be 0.95 ×10⁻⁶ cm/s. In addition, the EC50 in data set [2] is 8.8 µM; in data set [4], 4.8 µM. The Activity result in data set [3] is “Not Active”.
The like results for `COc1cc2c(cc1OC)CN(Cc1ccc(-c3ccc4ccccc4c3)o1)CC2` were, in that order, 0.33 ×10⁻⁶ cm/s, above 100 µM, 7.1 µM and “Not Active”.
As to `COc1cc2c(cc1OC)CN(Cc1ccc(-c3ccc(O)cc3)cc1)CC2`, the EC50 is 9.3 µM in data set [2], 0.69 µM in data set [4] and 73 µM in data set [5].
As for `COc1ccc2cc(-c3nc(CN4CCc5cc(OC)c(OC)cc5C4)cs3)ccc2c1`, the Activity entry in data set [6] was “Not Active”; in data set [3], “Active”. Besides, in data set [1], the Papp at 2 h is 0.6 ×10⁻⁶ cm/s.
Regarding `COc1cc2c(cc1OC)CN(CCCC1CCCc3c(OC)cccc31)CC2` (centres undefined), the concentration for a half-maximal effect (EC50) in data set [2] was above 100 µM.
In the case of `COc1ccc2cc(-c3nc(CN4CCc5cc(OC)c(OC)cc5C4)co3)ccc2c1`, the Activity result in data set [6] is reported as “Not Active”; in data set [3] it was “Active”. In data set [1], the Papp at 2 h stood at 0.38 ×10⁻⁶ cm/s. The values for the EC50 in data set [2] and in data set [4] were 14.7 µM and 0.6 µM, respectively.
Take `COc1cc2c(cc1OC)CN(Cc1csc(-c3ccc4ccccc4c3)n1)CC2`: the Papp at 2 h in data set [1] was 2.37 ×10⁻⁶ cm/s. Further, the concentration giving a half-maximal response (EC50) in data set [2] is 3.2 µM; in data set [4] it was 3.5 µM. Also, in data set [3], the Activity entry was “Not Active”.
As for `COc1cc2c(cc1OC)CN(Cc1coc(-c3ccc4ccccc4c3)n1)CC2`, the Papp at 2 h in data set [1] came out at 0.038 ×10⁻⁶ cm/s. Moreover, in data set [3], the Activity result is “Not Active”. Besides, the EC50 in data set [4] is 2.3 µM.
Consider `COc1cc2c(cc1OC)CN(Cc1coc(-c3ccc4cc(O)ccc4c3)n1)CC2`, for which the Papp at 2 h in data set [1] worked out at 0.157 ×10⁻⁶ cm/s. The Activity result in data set [3] is on record as “Not Active”.
As for `COc1cc2c(cc1OC)CN(Cc1coc(-c3ccc4cc(Br)ccc4c3)n1)CC2`, the Papp at 2 h in data set [1] was 0.32 ×10⁻⁶ cm/s. Further, the EC50 in data set [2] was above 100 µM; in data set [4] it was 1.8 µM. Also, in data set [3], the Activity result is given as “Not Active”.
Regarding `COc1cc2c(cc1OC)CN(Cc1csc(-c3ccc4cc(Br)ccc4c3)n1)CC2`, the Activity result is “Not Active” in data set [6] and “Active” in data set [3]. The Papp at 2 h in data set [1] came out at 0.59 ×10⁻⁶ cm/s.
As to `COc1cc2c(cc1OC)CN(CC/C=C1\CCCc3c(OC)cccc31)CC2`, the EC50 is 2.8 µM in data set [2] and 1.5 µM in data set [4].
